System: not given
Experiment: not given
Conditions: not given

COc1ccc(-n2nnnc2C(F)(F)F)cc1CN1C[C@@H]2CN(C3CCC3)CCN2[C@H](C(c2ccccc2)c2ccccc2)C1.Cl.Cl.Cl and COc1ccc(-n2nnnc2C(F)(F)F)cc1CN1C[C@@H]2CN(C(N)=O)CCN2[C@H](C(c2ccccc2)c2ccccc2)C1.Cl.Cl cannot be ordered by melting point: 184 to 187 °C for the first, 165 to 190 °C for the second.

First: COc1ccc(-n2nnnc2C(F)(F)F)cc1CN1C[C@@H]2CN(CC(C)=O)CCN2[C@H](C(c2ccccc2)c2ccccc2)C1.Cl.Cl.Cl
Second: CNC(=O)N1CCN2[C@H](CN(Cc3cc(-n4nnnc4C(F)(F)F)ccc3OC)C[C@H]2C(c2ccccc2)c2ccccc2)C1.Cl.Cl
The melting point of the first is higher: 175 to 179 °C for the first, 160 to 170 °C for the second.

Compared with COc1ccc(-n2nnnc2CC(F)(F)F)cc1CN1C[C@@H]2CN(C(=O)c3cccnc3)CCN2[C@H](C(c2ccccc2)c2ccccc2)C1.Cl.Cl.Cl, COc1ccc(-n2nnnc2C(F)(F)F)cc1CN1C[C@@H]2CN(c3cccnc3)CCN2[C@H](C(c2ccccc2)c2ccccc2)C1.Cl.Cl.Cl is lower in melting point: 197 to 200 °C for the first, 175 to 178 °C for the second.

COc1ccc(-n2nnnc2C(F)(F)F)cc1CN1C[C@@H]2CN(C(=O)CCO)CCN2[C@H](C(c2ccccc2)c2ccccc2)C1.Cl.Cl and COc1ccc(-n2nnnc2C(F)(F)F)cc1CN1C[C@@H]2CN(C(=O)CO)CCN2[C@H](C(c2ccccc2)c2ccccc2)C1.Cl.Cl cannot be ordered by melting point: 147 to 154 °C for the first, 140 to 159 °C for the second.

First: COc1ccc(-n2nnnc2C(F)(F)F)cc1CN1C[C@@H]2CN(C(=O)C3CCCCC3)CCN2[C@H](C(c2ccccc2)c2ccccc2)C1.Cl.Cl
Second: COc1ccc(-n2nnnc2C(F)(F)F)cc1CN1C[C@@H]2CN(C(=O)[C@H](C)O)CCN2[C@H](C(c2ccccc2)c2ccccc2)C1.Cl.Cl
The melting point of the first is higher: 169 to 174.5 °C for the first, 150 to 158 °C for the second.

Compared with COc1ccc(-n2nnnc2C(F)(F)F)cc1CN1C[C@@H]2CN(C(=O)CC(F)(F)F)CCN2[C@H](C(c2ccccc2)c2ccccc2)C1.Cl.Cl, COCCC(=O)N1CCN2[C@H](CN(Cc3cc(-n4nnnc4C(F)(F)F)ccc3OC)C[C@H]2C(c2ccccc2)c2ccccc2)C1.Cl.Cl is lower in melting point: 155 to 160 °C for the first, 132 to 135 °C for the second.

COc1ccc(-n2nnnc2C(F)(F)F)cc1CN1C[C@@H]2CN(C(C=O)C(=O)N(C)C)CCN2[C@H](C(c2ccccc2)c2ccccc2)C1.Cl.Cl (stereo partly shown) and COc1ccc(-n2nnnc2C(F)(F)F)cc1CN1C[C@@H]2CN(C(=O)N(C)C)CCN2[C@H](C(c2ccccc2)c2ccccc2)C1.Cl.Cl cannot be ordered by melting point: 155 to 168 °C for the first, 158 to 164 °C for the second.

COc1ccc(-n2nnnc2C(F)(F)F)cc1CN1C[C@@H]2CN(C(=O)COC(C)=O)CCN2[C@H](C(c2ccccc2)c2ccccc2)C1.Cl.Cl and COc1ccc(-n2nnnc2C(F)(F)F)cc1CN1C[C@@H]2CN(C(=O)C(C)(C)OC(C)=O)CCN2[C@H](C(c2ccccc2)c2ccccc2)C1.Cl.Cl cannot be ordered by melting point: 138 to 153 °C for the first, 143 to 148 °C for the second.

First: COc1ccc(-n2nnnc2C(F)(F)F)cc1CN1C[C@@H]2CC(NC(=O)CO)CN2[C@H](C(c2ccccc2)c2ccccc2)C1.Cl.Cl (stereo partly shown)
Second: COc1ccc(-n2nnnc2C(F)(F)F)cc1CN1C[C@@H]2CN(S(N)(=O)=O)CCN2[C@H](C(c2ccccc2)c2ccccc2)C1.Cl.Cl
The melting point of the first is lower: 155 to 159 °C for the first, 174 to 176 °C for the second.

First: COc1ccc(-n2nnnc2C(F)(F)F)c(OC)c1CN1C[C@@H]2CN(C(=O)CO)CCN2[C@H](C(c2ccccc2)c2ccccc2)C1.Cl.Cl
Second: COc1ccc(-n2nnnc2C(F)(F)F)cc1CN1C[C@@H]2CN(S(=O)(=O)N(C)C)CCN2[C@H](C(c2ccccc2)c2ccccc2)C1.Cl.Cl
The melting point of the first is lower: 128 to 132 °C for the first, 148 to 152 °C for the second.

In the case of COc1ccc(-n2nnnc2C(F)(F)F)cc1CN1C[C@@H]2CN(S(=O)(=O)CS(C)(=O)=O)CCN2[C@H](C(c2ccccc2)c2ccccc2)C1.Cl.Cl, the melting point is reported as 162 to 168 °C.

With COc1ccc(-n2nnnc2C(F)(F)F)cc1CN1C[C@@H]2CN(C(=O)C3CCCC3)CCN2[C@H](C(c2ccccc2)c2ccccc2)C1.Cl.Cl the melting point was 170 to 178 °C (dec.).

System: Emesis in the Dog
Experiment: Emesis in the Dog (apomorphine-induced retching and vomiting)
Type: in vivo
Conditions: adult female dogs; test compound i.v. at the dose of 1.0 mg/kg; 5 min later subcutaneous apomorphine (0.1 mg/0.5 ml/kg); observed for the next 60 min
Experimental: Individually housed adult female dogs (8 to 15 kg) were given an i.v. injection of a solution containing a test compound. 5 Min later the emetic responses (retching and vomiting) were induced by administration of subcutaneous apomorphine (0.1 mg/0.5 ml/kg) and observed for the next 60 min. The timing and number of retches and vomits observed were recorded for each animal. An individual animal was tested with at least 10 days between experiments.

Point of comparison: COc1ccc(-n2nnnc2C(F)(F)F)c(OC)c1CN1CCN(Cc2cnn(C)c2)[C@H](C(c2ccccc2)c2ccccc2)C1.Cl.Cl [57-(1), (2R)-2-Benzhydryl-4-[2,6-dimethoxy-3-[5-(trifluoromethyl)-1H-tetrazol-1-yl]benzyl]-1-[(1-methyl-1H-pyrazol-4-yl)methyl]piperazine dihydrochloride], “inhibition rate of emesis in the dog” value 100%. Against it:
- COc1ccc(-n2nnnc2C(F)(F)F)c(OC)c1CN1C[C@@H]2C[C@@H](NC(C)=O)CN2[C@H](C(c2ccccc2)c2ccccc2)C1.Cl.Cl [52-(14), N-[(4R, 7R, 8aS)-4-Benzhydryl-2-[2,6-dimethoxy-3-[5-(trifluoromethyl)-1H-tetrazol-1-yl]benzyl]octahydropyrrolo-[1,2-a]pyrazin-7-yl]acetamide dihydrochloride] — the same, 100%
- COc1ccc(-n2nnnc2C(F)(F)F)c(OC)c1CN1C[C@@H]2CN(C(=O)N(C)C)CCN2[C@H](C(c2ccccc2)c2ccccc2)C1.Cl.Cl [52-(5), (6R,9aR)-6-Benzhydryl-8-[2,6-dimethoxy-3-[5-(trifluoromethyl)-1H-tetrazol-1-yl]benzyl]-N,N-dimethyloctahydro-2H-pyrazino[1,2-a]pyrazine-2-carboxamide dihydrochloride] — the same, 100%

From patent publication US20040220403A1, “1-(2-Methoxybenzyl)-3-benzhydrylpiperazines as tachykinin anatgonists” (priority 2001, published 2004)
